Legend:
Format in all cases: cell-based
[1] = tested on: Pseudomonas aeruginosa ATCC 15442; assay: AOAC Official Method 961.02 Germicidal Spray Method, bacteria on glass carriers; details: 10 min contact
From the text: (§1) In this method, a series of glass slides (“carriers”) were inoculated with a representative test organism and the carriers were dried under ambient conditions. The dried organisms on the surface of the carrier were then sequentially treated with the composition of the present disclosure in the form of a spray product and were exposed for a pre-determined exposure time. After exposure, the carriers were sequentially transferred to a liquid subculture medium specifically selected to neutralize the composition of the present disclosure and to recover any surviving test organism. The carriers were incubated and visually examined for the presence or absence of growth. […] Required organisms for a disinfection claim include but are not limited to Staphylococcus aureus, Salmonella choleraesuis and Pseudomonas aeruginosa.
(§2) Method Adapted to the Preparation of Bacteria Cultures from −80° C. Freshly Recovered Stock. […] Added 10 μL of the thawed stock to a tube containing 10 mL synthetic broth and then vortexed to mix. Discarded the rest of cryovial stock. • Incubated the tube at 36 ±1° C. for 24 hours (h). Briefly vortexed the 24 h culture prior to transfer. For this final subculture step, inoculated two 20×150 mm tubes containing 10 mL synthetic broth with […] of the 24 h synthetic broth culture. • Incubated 48 h at 36±1° C. Using a Vortex-style mixer, mixed synthetic broth test cultures 3-4 seconds and let stand 10 minutes at room temperature before continuing. Removed the upper portion of each culture, leaving behind any debris or clumps, and transferred to a sterile tube. Titrated the culture by plating on synthetic agar plates, and diluted to 5×10^8 Colony Forming Units (CFU) per mL.
(§3) High volume screening studies were conducted in some cases where only 4 organism-inoculated carriers were treated at specified concentrations of CTAB. Vortex-mixed the inoculum periodically during inoculation of the carriers. • Immediately spread the inoculum uniformly over the majority of the carrier surface using a sterile loop. […] Covered dish immediately and repeated operation until 64 carriers had been prepared for the test. Once all of the carriers had been inoculated, placed in incubator at 37° C. for 40 minutes until dry.
(§4) • After the test organisms were dried on the surface of the carrier, each carrier was sprayed with the respective disinfection formulae 10 times in 10 seconds at a distance of 30 cm. • Treatment interval was timed. Ten (10) minutes after each carrier had been sprayed by the disinfectant, the excess liquid was removed and the carriers were transferred in a sequentially timed fashion into the culture tubes containing 20 ml neutralizer (Letheen Broth with 0.07% Lecithin/0.5% Tween 80/0.1% Sodium Thiosulfate) to neutralize the disinfectant. […] The percentage of the treated carriers showing growth after 48 hours was recorded.

[2] = tested on: Staphylococcus aureus ATCC 6538; assay: as above; details: for Staphylococcus aureus Growth Rate: 10 min contact; for killing Staphylococcus aureus: 1.0% QAH
From the text: as §1, §2, §3, §4

[3] = tested on: select bacteria and fungal organisms; assay: Germicidal spray disinfection, summary over the tested organisms; details: 0.01% QAH in CMC; 10-minute contact time
Protocol: All experiments were conducted according to the protocol outlined in AOAC Official Method 961.02 (Germicidal Spray Method), which is a carrier-based method used to evaluate disinfection efficacy of aerosol/pump-based spray products and liquid products for registration with regulatory agencies such as the U.S. EPA and Health Canada.
It was expected that if the CTAB was replaced by QAH's of similar structure that the disinfection of selected bacteria and fungal organisms would be similarly achieved. […] In the case of bacteria testing, the experimental procedure was as outlined in Example 1 for disinfection of bacterial cultures. In the case of fungal organisms, the experimental procedure was as outlined in Example 1 for the preparation of fungal cultures.

[4] = tested on: Penicillium variable ATCC 32333; assay: AOAC Official Method 961.02 Germicidal Spray Method, fungal conidia on glass carriers; details: 10 min contact
From the text: as §1
(§5) The conidiospore suspension was macerated in a tissue grinder. The suspension was filtered through sterile cotton to remove the hyphae and hyphal fragments.
(§6) Vortex-mixed the inoculum periodically during inoculation of the carriers. • Immediately spread the inoculum uniformly over the majority of the carrier surface using a sterile loop. […] High volume screening studies were conducted in some cases where only 4 organism-inoculated carriers were treated at specified concentrations of CTAB. Once all of the carriers had been inoculated, the carriers were placed in an incubator at 37° C. for 40 minutes until completely dry.
(§7) • After drying, each carrier was sprayed with the respective disinfection formulae 10 times in 10 seconds at a distance of 30 cm. • Timed the treatment interval. Ten (10) minutes after each carrier had been exposed to the disinfectant, the excess liquid was removed and the carriers were transferred in a sequentially timed fashion into the culture tubes containing 20 ml neutralization broth (Letheen Broth with 0.07% Lecithin /0.5% Tween 80) to neutralize the disinfectant. • After the carriers were deposited in the respective culture tubes, the tubes were recapped and the cultures were thoroughly resuspended. • Incubated all neutralization tubes at 28 ±1° C. for 14 days. • After 14 days, the cultures within the tubes were examined for growth. The percentage of the treated carriers showing growth was recorded.

[5] = tested on: Trichophyton mentagrophytes ATCC 9533; assay: as above; details: 10 min contact
From the text: as §1, §5, §6, §7

[6] = tested on: Aspergillus niger ATCC 6275; assay: as above; details: 10 min contact
From the text: as §1, §5, §6, §7

Row | Molecule | Pseudomonas aeruginosa Growth Rate ([1]; CMC + QAH, QAH 0.010%) [%] | Pseudomonas aeruginosa Growth Rate ([1]; CMC + QAH, QAH 0.100%) [%] | Pseudomonas aeruginosa Growth Rate ([1]; CMC + QAH, QAH 1.000%) [%] | Pseudomonas aeruginosa Growth Rate ([1]; Water + QAH, QAH 0.010%) [%] | Pseudomonas aeruginosa Growth Rate ([1]; Water + QAH, QAH 0.100%) [%] | Pseudomonas aeruginosa Growth Rate ([1]; Water + QAH, QAH 1.000%) [%] | Staphylococcus aureus Growth Rate ([2]; CMC + QAH, QAH 0.010%) [%] | Staphylococcus aureus Growth Rate ([2]; CMC + QAH, QAH 0.100%) [%] | Staphylococcus aureus Growth Rate ([2]; CMC + QAH, QAH 1.000%) [%] | Staphylococcus aureus Growth Rate ([2]; Water + QAH, QAH 0.010%) [%] | Staphylococcus aureus Growth Rate ([2]; Water + QAH, QAH 0.100%) [%] | Staphylococcus aureus Growth Rate ([2]; Water + QAH, QAH 1.000%) [%] | effectiveness against the target organisms [3] | Penicillium variable Growth Rate ([4]; CMC + QAH, QAH 0.010%) [%] | Penicillium variable Growth Rate ([4]; CMC + QAH, QAH 0.100%) [%] | Penicillium variable Growth Rate ([4]; CMC + QAH, QAH 1.000%) [%] | Penicillium variable Growth Rate ([4]; Water + QAH, QAH 0.010%) [%] | Penicillium variable Growth Rate ([4]; Water + QAH, QAH 0.100%) [%] | Penicillium variable Growth Rate ([4]; Water + QAH, QAH 1.000%) [%] | Trichophyton mentagrophytes Growth Rate ([5]; CMC + QAH, QAH 0.010%) [%] | also measured
1 | CCCCCCCCCCCCCCCC[N+](C)(C)Cc1ccccc1.[Cl-] [BDAC, Benzyl-dimethylhexadecylammonium chloride] | 0 | 0 | 0 | 100 | 25 | 25 | 0 | 0 | 0 | 100 | 0 | 0 | remarkable effectiveness | 0 | 0 | 0 | 0 | 0 | 0 | 0 | Trichophyton mentagrophytes Growth Rate ([5]; CMC + QAH, QAH 0.100%): 0%; Trichophyton mentagrophytes Growth Rate ([5]; CMC + QAH, QAH 1.000%): 0%; Trichophyton mentagrophytes Growth Rate ([5]; Water + QAH, QAH 0.010%): 0%; Trichophyton mentagrophytes Growth Rate ([5]; Water + QAH, QAH 0.100%): 0%; Trichophyton mentagrophytes Growth Rate ([5]; Water + QAH, QAH 1.000%): 0%; Aspergillus niger Growth Rate ([6]; CMC + QAH, QAH 0.010%): 100%; Aspergillus niger Growth Rate ([6]; CMC + QAH, QAH 0.100%): 25%; Aspergillus niger Growth Rate ([6]; CMC + QAH, QAH 1.000%): 0%; Aspergillus niger Growth Rate ([6]; Water + QAH, QAH 0.010%): 100%; Aspergillus niger Growth Rate ([6]; Water + QAH, QAH 0.100%): 75%; Aspergillus niger Growth Rate ([6]; Water + QAH, QAH 1.000%): 0%
2 | CCCC[N+](CCCC)(CCCC)Cc1ccccc1.[Cl-] [BTBAC, Benzyltri-n-butylammonium chloride] |  |  |  |  |  |  | 100 | 100 | 100 | 100 | 100 | 100 |  |  |  |  |  |  |  |  | killing Staphylococcus aureus [2]: incapable of killing
3 | CC[N+](CC)(CC)Cc1ccccc1.[Cl-] [BTEAC, Benzyltriethylammonium chloride] |  |  |  |  |  |  | 100 | 100 | 75 | 100 | 100 | 100 |  |  |  |  |  |  |  |  | killing Staphylococcus aureus [2]: incapable of killing
4 | CCCCCCCCCCCCCCCCCC[N+](C)(C)C.[Cl-] [TMSAC, Trimethylstearylammonium chloride] | 0 | 0 | 0 | 100 | 50 | 0 | 0 | 0 | 0 | 100 | 100 | 50 | remarkable effectiveness | 0 | 0 | 0 | 0 | 0 | 0 | 0 | Trichophyton mentagrophytes Growth Rate ([5]; CMC + QAH, QAH 0.100%): 0%; Trichophyton mentagrophytes Growth Rate ([5]; CMC + QAH, QAH 1.000%): 0%; Trichophyton mentagrophytes Growth Rate ([5]; Water + QAH, QAH 0.010%): 0%; Trichophyton mentagrophytes Growth Rate ([5]; Water + QAH, QAH 0.100%): 0%; Trichophyton mentagrophytes Growth Rate ([5]; Water + QAH, QAH 1.000%): 0%
5 | Alkyldimethylbenzylammonium chloride [ADBAC] | 0 | 0 | 0 | 0 | 0 | 0 |  |  |  |  |  |  | remarkable effectiveness | 0 | 0 | 0 | 0 | 0 | 0 | 0 | Trichophyton mentagrophytes Growth Rate ([5]; CMC + QAH, QAH 0.100%): 0%; Trichophyton mentagrophytes Growth Rate ([5]; CMC + QAH, QAH 1.000%): 0%; Trichophyton mentagrophytes Growth Rate ([5]; Water + QAH, QAH 0.010%): 0%; Trichophyton mentagrophytes Growth Rate ([5]; Water + QAH, QAH 0.100%): 0%; Trichophyton mentagrophytes Growth Rate ([5]; Water + QAH, QAH 1.000%): 0%; Aspergillus niger Growth Rate ([6]; CMC + QAH, QAH 0.010%): 100%; Aspergillus niger Growth Rate ([6]; CMC + QAH, QAH 0.100%): 0%; Aspergillus niger Growth Rate ([6]; CMC + QAH, QAH 1.000%): 0%; Aspergillus niger Growth Rate ([6]; Water + QAH, QAH 0.010%): 100%; Aspergillus niger Growth Rate ([6]; Water + QAH, QAH 0.100%): 100%; Aspergillus niger Growth Rate ([6]; Water + QAH, QAH 1.000%): 0%
